In PubChem BioAssay AID330 (DTP/NCI, 2004):
Several values for one entry are separate records, joined by “and”; a condition that tells them apart may be missing. Equal values may be shown once. Inconclusive results and toxic doses are left out. How the source made its calls: active means survival T/C of 150% or more; inactive means T/C below 125% in these data. Peptide text beside a SMILES is read from it.

Test system: P388 leukemia ip, CD2F1 mice, survival T/C
Test: NCI In Vivo Anticancer Drug Screen. Data for tumor model P388 Leukemia (intraperitoneal) in CD2F1 (CDF1) mice
Conditions: endpoint: median survival time, higher = longer survival
Outline: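 Mice carrying the transplanted tumor received test compound or vehicle. Survival was recorded in each group, and the value is the treated-group measurement divided by that of the vehicle-treated control group.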

[1] = dose: 50.0 mg/kg/injection, schedule: Q01DX005 (ip), vehicle: Klucel (hydroxypropylcellulose) (HPC)
[2] = dose: 100.0 mg/kg/injection, schedule: Q01DX005 (ip), vehicle: Klucel (hydroxypropylcellulose) (HPC)
[3] = dose: 200.0 mg/kg/injection, schedule: Q01DX005 (ip), vehicle: Klucel (hydroxypropylcellulose) (HPC)
[4] = dose: 12.5 mg/kg/injection, schedule: Q01DX005 (ip), vehicle: saline with Tween-80
[5] = dose: 25.0 mg/kg/injection, schedule: Q01DX005 (ip), vehicle: saline with Tween-80
[6] = dose: 50.0 mg/kg/injection, schedule: Q01DX005 (ip), vehicle: saline with Tween-80
[7] = dose: 50.0 mg/kg/injection, schedule: Q01DX005 (ip), vehicle: saline
[8] = dose: 25.0 mg/kg/injection, schedule: Q01DX005 (ip), vehicle: Klucel (hydroxypropylcellulose) (HPC)
[9] = dose: 100.0 mg/kg/injection, schedule: Q01DX001 (ip), vehicle: saline with Tween-80
[10] = dose: 50.0 mg/kg/injection, schedule: Q01DX009 (ip), vehicle: Klucel (hydroxypropylcellulose) (HPC)
[11] = dose: 100.0 mg/kg/injection, schedule: Q01DX009 (ip), vehicle: Klucel (hydroxypropylcellulose) (HPC)
[12] = dose: 200.0 mg/kg/injection, schedule: Q01DX009 (ip), vehicle: Klucel (hydroxypropylcellulose) (HPC)
[13] = dose: 6.25 mg/kg/injection, schedule: Q01DX009 (ip), vehicle: saline with Tween-80
[14] = dose: 12.5 mg/kg/injection, schedule: Q01DX009 (ip), vehicle: saline with Tween-80

Measured: T/C

FC(F)(F)c1ccc2c3c(c4c(c2n1)OCN(Cc1ccc(Cl)cc1Cl)C4)CN(Cc1ccc(Cl)cc1Cl)CO3
inactive: dose: 100.0 mg/kg/injection, schedule: Q01DX001 (ip), vehicle: other 93 % of control | dose: 200.0 mg/kg/injection, schedule: Q01DX001 (ip), vehicle: other 93 % of control | dose: 400.0 mg/kg/injection, schedule: Q01DX001 (ip), vehicle: other 100 % of control

O=C(Nc1ccc([N+](=O)[O-])cc1)c1c2ccccc2nc2ccccc12
inactive: dose: 50.0 mg/kg/injection, schedule: Q01DX005 (ip), vehicle: suspension in saline 92 % of control | dose: 100.0 mg/kg/injection, schedule: Q01DX005 (ip), vehicle: suspension in saline 100 % of control | dose: 200.0 mg/kg/injection, schedule: Q01DX005 (ip), vehicle: suspension in saline 104 % of control

COc1ccc(C(=O)C(CN2CCCC2)CN2CCCC2)cc1
inactive: dose: 7.5 mg/kg/injection, schedule: Q01DX005 (ip), vehicle: saline 111 % of control | dose: 7.5 mg/kg/injection, schedule: Q01DX009 (ip), vehicle: saline 112 % of control | dose: 15.0 mg/kg/injection, schedule: Q01DX004 (ip), vehicle: saline 122 % of control | dose: 15.0 mg/kg/injection, schedule: Q01DX005 (ip), vehicle: saline 121 % of control | dose: 15.0 mg/kg/injection, schedule: Q01DX009 (ip), vehicle: saline 123 % of control | dose: 30.0 mg/kg/injection, schedule: Q01DX004 (ip), vehicle: saline 115 % of control | dose: 60.0 mg/kg/injection, schedule: Q01DX004 (ip), vehicle: saline 108 % of control

COc1cc2c(cc1OC)C(=O)OC(=O)C2
inactive: [1] 100 % of control | [2] 92 % of control | [3] 95 % of control

CN(C)c1ccc2cc(-n3nnc4cc([N+](=O)[O-])ccc43)c(=O)oc2c1
inactive: [4] 100 % of control | [5] 99 % of control | [6] 90 % of control

CC(C)CC(NC(=O)C(N)CCCN=C(N)N)C(=O)O (stereo not drawn) (H-Arg-Leu-OH; configuration not given here)
inactive: [7] 100 % of control | dose: 100.0 mg/kg/injection, schedule: Q01DX005 (ip), vehicle: saline 100 % of control | dose: 200.0 mg/kg/injection, schedule: Q01DX005 (ip), vehicle: saline 106 % of control

CC(=O)OCC1OC(OC2C=C(O[Si](C)(C)C)C[C@H]3C(=O)C=CC(=O)[C@@H]23)C(OC(C)=O)C(OC(C)=O)C1OC(C)=O (stereo partly drawn)
inactive: dose: 7.5 mg/kg/injection, schedule: Q01DX005 (ip), vehicle: saline with Tween-80 98 % of control | dose: 15.0 mg/kg/injection, schedule: Q01DX005 (ip), vehicle: saline with Tween-80 98 % of control | dose: 60.0 mg/kg/injection, schedule: Q01DX005 (ip), vehicle: saline with Tween-80 98 % of control and 102 % of control

C=CCC1OC(COC(=O)c2ccccc2)C(OC(=O)c2ccccc2)C1OC(=O)c1ccccc1 (stereo not drawn)
inactive: [8] 112 % of control | dose: 44.5 mg/kg/injection, schedule: Q01DX005 (ip), vehicle: Klucel (hydroxypropylcellulose) (HPC) 114 % of control | [1] 117 % of control | dose: 89.0 mg/kg/injection, schedule: Q01DX005 (ip), vehicle: Klucel (hydroxypropylcellulose) (HPC) 120 % of control | [2] 118 % of control

CC(C)(C)c1cc2c3c(c1)C(C)(C)OS314(OC2=O)OC(=O)c2cc(C(C)(C)C)cc(c21)C(C)(C)O4
inactive: dose: 25.0 mg/kg/injection, schedule: Q01DX001 (ip), vehicle: saline with Tween-80 111 % of control | dose: 50.0 mg/kg/injection, schedule: Q01DX001 (ip), vehicle: saline with Tween-80 92 % of control | [9] 100 % of control

Brc1ccc(COC2C[C@]34CC=CC[C@@]3(C2)O4)cc1 (stereo partly drawn)
inactive: [1] 105 % of control | [2] 103 % of control | [3] 105 % of control

CC(=O)OCC1=C(C)CC(C(C)C2CCC3C4CC5OC56C(OC(C)=O)C(N5CC5)CC(=O)C6(C)C4CCC23C)OC1=O (stereo not drawn)
inactive: dose: 3.12 mg/kg/injection, schedule: Q01DX005 (ip), vehicle: Klucel (hydroxypropylcellulose) (HPC) 100 % of control | dose: 6.25 mg/kg/injection, schedule: Q01DX005 (ip), vehicle: Klucel (hydroxypropylcellulose) (HPC) 98 % of control | dose: 12.5 mg/kg/injection, schedule: Q01DX005 (ip), vehicle: Klucel (hydroxypropylcellulose) (HPC) 104 % of control | [8] 112 % of control | [1] 110 % of control

[Ni+2].[O-]/C(=N\N=C\c1ccccn1)c1ccccc1O.[O-]/C(=N\N=C\c1ccccn1)c1ccccc1O
inactive: dose: 50.0 mg/kg/injection, schedule: Q04DX002 (ip), vehicle: saline with Tween-80 98 % of control | dose: 100.0 mg/kg/injection, schedule: Q04DX002 (ip), vehicle: saline with Tween-80 101 % of control | dose: 200.0 mg/kg/injection, schedule: Q04DX002 (ip), vehicle: saline with Tween-80 89 % of control

NC(=O)c1ncn(C2OC(CO)C(O)C2O)c1O (stereo not drawn)
inactive: dose: 12.5 mg/kg/injection, schedule: Q01DX009 (ip), vehicle: Klucel (hydroxypropylcellulose) (HPC) 107 % of control | dose: 25.0 mg/kg/injection, schedule: Q01DX009 (ip), vehicle: Klucel (hydroxypropylcellulose) (HPC) 113 % of control | [10] 115 % of control | [11] 113 % of control | [12] 96 % of control

CS(=O)(=O)Nc1ccc(NC(=O)c2c3ccccc3nc3ccccc23)cc1
inactive: [4] 103 % of control | [5] 99 % of control | [6] 109 % of control and 110 % of control

COc1ccc(CCNC(=O)CC2CCN(C)CC2)cc1OC
inactive: dose: 100.0 mg/kg/injection, schedule: Q04DX003 (ip), vehicle: saline with Tween-80 101 % of control | dose: 200.0 mg/kg/injection, schedule: Q04DX003 (ip), vehicle: saline with Tween-80 100 % of control

C/C=C/c1ccc(OC(C)C(=O)c2ccc(OC)c(OC)c2)c(OC)c1 (stereo not drawn)
inactive: dose: 10.0 mg/kg/injection, schedule: Q01DX005 (ip), vehicle: Klucel (hydroxypropylcellulose) (HPC) 97 % of control | dose: 20.0 mg/kg/injection, schedule: Q01DX005 (ip), vehicle: Klucel (hydroxypropylcellulose) (HPC) 100 % of control | dose: 40.0 mg/kg/injection, schedule: Q01DX005 (ip), vehicle: Klucel (hydroxypropylcellulose) (HPC) 99 % of control

C=C1C(C2(C)C(OC(C)=O)CC(=O)OC3(C)COC(=O)CC32)C(OC=O)C(OC(=O)CC(C)C)C2(C)C(c3ccoc3)CC(=O)C12O (stereo not drawn)
inactive: dose: 0.25 mg/kg/injection, schedule: Q01DX009 (ip), vehicle: Klucel (hydroxypropylcellulose) (HPC) 88 % of control | dose: 0.5 mg/kg/injection, schedule: Q01DX009 (ip), vehicle: Klucel (hydroxypropylcellulose) (HPC) 91 % of control | dose: 1.0 mg/kg/injection, schedule: Q01DX009 (ip), vehicle: Klucel (hydroxypropylcellulose) (HPC) 88 % of control | dose: 2.0 mg/kg/injection, schedule: Q01DX009 (ip), vehicle: Klucel (hydroxypropylcellulose) (HPC) 97 % of control

C[N+]1=C(/C=C/Nc2cc3c4ccccc4ccc3c3ccccc23)C(C)(C)c2ccccc21
inactive: [10] 117 % of control | [11] 119 % of control | [12] 117 % of control

C=C1CC2(CC[N+](Cc3ccccc3)(Cc3ccccc3)CC2)OC1=O
inactive: dose: 12.5 mg/kg/injection, schedule: Q01DX005 (ip), vehicle: saline 103 % of control | dose: 25.0 mg/kg/injection, schedule: Q01DX005 (ip), vehicle: saline 103 % of control | [7] 102 % of control and 97 % of control

COC(=O)[CH](C[N+](=O)[O-])[Hg][Cl] (stereo not drawn)
inactive: dose: 3.12 mg/kg/injection, schedule: Q01DX009 (ip), vehicle: saline with Tween-80 100 % of control | [13] 100 % of control | [14] 95 % of control

COC(=O)/C=C(\O)C(Cc1cc(OC)c2c(c1O)C(=O)c1c(OC)cccc1C2=O)C(=O)OC (stereo not drawn)
inactive: [9] 101 % of control | dose: 200.0 mg/kg/injection, schedule: Q01DX001 (ip), vehicle: saline with Tween-80 102 % of control | dose: 400.0 mg/kg/injection, schedule: Q01DX001 (ip), vehicle: saline with Tween-80 97 % of control

CC(O)C(NC(=O)c1cnc(OCc2ccccc2)nc1N)C(=O)O (stereo not drawn)
inactive: [13] 100 % of control | [14] 100 % of control | dose: 25.0 mg/kg/injection, schedule: Q01DX009 (ip), vehicle: saline with Tween-80 90 % of control

COc1ccc2nc3cc(Cl)ccc3c(NCCCN3CCCC3)c2n1
inactive: dose: 12.5 mg/kg/injection, schedule: Q01DX009 (ip), vehicle: water 102 % of control | dose: 25.0 mg/kg/injection, schedule: Q01DX009 (ip), vehicle: water 102 % of control
